Usually IC50 stands for the concentration that inhibits the measured activity by half. As usually defined, the inhibition is the drop in the measured response relative to a control, in per cent.

The values that follow come from US20190358138A1, “A PERSONAL CARE COMPOSITION” (Conopco, Inc., d/b/a UNILEVER, priority 2017, published 2019).

Assay [1] concerns store-operated Ca^2+ entry (SOCE). Description: Store-operated Ca2+ entry (SOCE) in isolated human eccrine sweat glands, thapsigargin-induced, Fura-2 340:380 ratio. It counts as cell-based. The following applies: for IC50: half-maximal concentration from dose-response curve, isolated eccrine glands, 1 μM thapsigargin; for inhibition at 10 µM: reduction in 340:380 ratio at maximal inhibitor concentration 10^−5M, as % of control response, read-out: Potency (% inhibition at 10^−5M). Here is the method:
Isolation of Human Eccrine Sweat Glands
Viable human eccrine sweat glands were isolated from samples of human skin (obtained under ethical consent).
Measurement of Intracellular Ca^2+ Concentration
Intracellular [Ca^2+]i was measured in isolated eccrine glands by plating them onto Matrigel coated glass coverslips and loading them with the calcium-sensitive, fluorescent dye Fura-2 by incubation (30-45 minutes, 37° C.) with the membrane-permeant, acetoxymethyl ester form of the dye (Fura-2AM). These coverslips (with dye-loaded glands) were then mounted in a small chamber attached to the stage of an inverted microscope, and the glands superfused (ca. 5 ml minute^−1, 37° C.) with physiological salt solution (PSS; composition (mM): NaCl 130, KCl 5, MgCl2 1, CaCl2 1, HEPES 20, D-Glucose 10, pH 7.4 with NaOH). Changes in [Ca^2+]i were detected using 340/380 nm excitation and 510 nm emission wavelengths, and data expressed as the 340:380 ratio.
Measurement of Store-Operated Ca^2+ Entry (SOCE)
To measure store-operated calcium entry (SOCE), independent of external membrane receptor activation, the following assay protocol was used. First, isolated glands were exposed to 1 μM thapsigargin in Ca^2+-free PSS for 3 minutes. As thapsigargin inhibits the Ca^2+-ATPase uptake pathway in intracellular Ca^2+ stores, this enables Ca^2+ to leak out of the store and subsequently trigger the activation of SOCE. In Ca^2+-free PSS, this process is represented by a very small rise in [Ca^2+]i. Glands were then exposed to 1 μM thapsigargin in Ca^2+-containing PSS for 2 minutes, thereby inducing a rapid increase in [Ca^2+]i via Ca^2+ entry into the cells via the open SOCE pathway. To complete the protocol, thapsigargin is finally removed by washing the glands with Ca^2+ -containing PSS, and allowing the resting [Ca^2+]i level to re-establish itself, and the intracellular Ca^2+ stores to refill. The effectiveness of selected SOCE channel inhibitors were assessed by repeating the above procedure in the presence of the inhibitor (at a chosen concentration) from the time at which thapsigargin was added to release the intracellular Ca^2+ stores, until the cells were finally washed following the Ca^2+ peak initiated by Ca^2+ entry. Dose-response curves were constructed for each inhibitor and the half-maximal concentration (IC50) determined. The potency of each inhibitor was also assessed by expressing the reduction in the 340:380 ratio observed at the maximum concentration (10^−5M) as a % of the control response (i.e. in the absence of inhibitor; see Table 1).

Assay [2] concerns interleukin (IL)-6. The assay is described as follows: THP-1 in vitro anti-inflammation assay: IL-6 ELISA in supernatant of PMA-differentiated, LPS-treated THP1-XBlue cells. The class given is cell-based. The note with it: 24 hours, LPS alone 24176. Here is the method:
The following procedure was used to test the anti-inflammation efficacy of the actives.
THP1-XBlue™ (Cat No: thpx-sp, InvivoGen) cells were cultured as a suspension in RPMI 1640 medium supplemented with 10% FBS, penicillin (10 U/mL)—streptomycin (10 μg/ML). Cells were differentiated in 24-well plates at the density of 5×10^5 cells/well with 100 nM PMA for 72 hours. Cells were then co-treated with pure E. coli lipopolysaccharides (LPS) and with active. After 24 hours, the supernatants were collected and measured for interleukin (IL)-6 as pro-inflammatory bio-marker using enzyme-linked immunosorbent assay (ELISA).
A general note: In an ELISA, binding on a coated surface is turned into a signal by an enzyme label.

Where [3] appears, read: 20 μM active co-treated with E. coli LPS.

`COc1ccc(/C=C/C(=O)C(C)(C)C(=O)/C=C/c2ccc(OC)c(OC)c2)cc1OC` [Formula 2]: in assay [1], the IC50 is 24 nM and the inhibition at 10 µM was found to be 99%.

For `COc1ccc(CCC(O)C(C)(C)C(O)CCc2ccc(OC)c(OC)c2)cc1OC` (stereo not drawn) [Formula 5, 1,7-bis (3,4-dimethoxyphenyl)-4,4-dimethylheptane-3,5-diol], in assay [1], the half-maximal inhibitory concentration (IC50) is 138 nM and the inhibition at 10 µM came to 76%. Also, in assay [2] (10 μM active co-treated with E. coli LPS), the “Concentration of IL-6” value came to 14880 pg/mL. In addition, in assay [2] (setting [3]), the “Concentration of IL-6” value is 9142 pg/mL.

As for `COc1cc(CCC(O)CC(O)CCc2ccc(O)c(OC)c2)ccc1O` (stereo not drawn) [Formula 4, 1,7-bis(4-hydroxy-3-methoxyphenyl) heptane-3,5-diol], in assay [1], the IC50 was 91.2 nM and the inhibition at 10 µM came to 75.4%. Besides, in assay [2] (setting [3]), the “Concentration of IL-6” value was found to be 18218 pg/mL.
